# Test results taken from US20110130447A1, “Production of hop extracts having oestrogenic and antiproliferative bioactivity” (priority 2004, published 2011).
# Experiments:
# [1] = cited from earlier work; for oestrogenic activity: Milligan et al., 1999, 2000
# [2] = Bioavailability and stability of 8-isopentylnaringenin compared with 8-prenylnaringenin
# human oestrogen receptor = molecular target: T1, human oestrogen receptor (Homo sapiens, UniProt P03372); assay: Oestrogen-inducible yeast screen (Lac-Z reporter); assay type: cell-based; settings: FIG. 4, relative to 8-prenylnaringenin
# T1 construct: expressed in transfected cells; host or cells: Saccharomyces cerevisiae
# Protocol: The yeasts were grown in a medium containing increasing concentrations of 17β-estradiol (positive control), 8-prenylnaringenin (8-PN), 8-isopentylnaringenin (8PN-H2) or dihydro-isoxanthohumol (IsoX-H2). Expression of the Lac-Z reporter gene was spectrophotometrically measured and quantified.
# [3] = Milligan et al., 2002; cited from earlier work
# [4] = system: oestrogen-responsive MCF-7 breast cancer cells; assay: Bioassay of 8-prenylnaringenin-induced proliferation of MCF-7 cells and its inhibition by xanthohumol; assay type: cell-based
# Protocol: A bioassay was developed to probe proliferation of oestrogen-dependent cancer cells by 8-prenylnaringenin and to determine concentrations of xanthohumol required to inhibit this 8-prenylnaringenin-induced proliferation. Thereto, oestrogen-responsive MCF-7 breast cancer cells were grown in 96-well plates in the presence of a fixed and growth-stimulatory concentration of 8-prenylnaringenin and varying concentrations of xanthohumol. For each concentration of 8-prenylnaringenin (1 nM, 10 nM, and 100 nM), the concentrations of xanthohumol were 0 μM, 0.1 μM, 1 μM, 5 μM, 10 μM and 25 μM, respectively.
# cyclooxygenase-1 = molecular target: T2, cyclooxygenase-1 (Ovis aries, UniProt P05979); settings: Gerhauser et al., 2002; cited from earlier work
# T2 sequence (P05979 25-600): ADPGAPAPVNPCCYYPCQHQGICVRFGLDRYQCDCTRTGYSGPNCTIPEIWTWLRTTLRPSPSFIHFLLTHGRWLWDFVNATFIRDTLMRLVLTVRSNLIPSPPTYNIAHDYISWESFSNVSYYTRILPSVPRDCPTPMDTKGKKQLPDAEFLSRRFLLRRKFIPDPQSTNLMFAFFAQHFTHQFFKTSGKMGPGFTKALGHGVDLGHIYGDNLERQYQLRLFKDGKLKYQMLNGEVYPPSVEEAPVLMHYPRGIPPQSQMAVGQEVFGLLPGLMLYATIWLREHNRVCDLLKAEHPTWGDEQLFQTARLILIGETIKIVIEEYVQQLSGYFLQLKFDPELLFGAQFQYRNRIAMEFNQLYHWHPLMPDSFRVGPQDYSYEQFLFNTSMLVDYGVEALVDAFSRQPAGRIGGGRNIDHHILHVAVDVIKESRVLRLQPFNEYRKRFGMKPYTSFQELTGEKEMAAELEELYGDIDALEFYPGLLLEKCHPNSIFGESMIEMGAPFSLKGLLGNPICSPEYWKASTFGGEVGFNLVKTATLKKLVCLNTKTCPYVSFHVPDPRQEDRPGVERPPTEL
# cyclooxygenase-2 = molecular target: T3, cyclooxygenase-2 (Homo sapiens, UniProt P35354); settings: Gerhauser et al., 2002; cited from earlier work
# T3 sequence (P35354 18-604): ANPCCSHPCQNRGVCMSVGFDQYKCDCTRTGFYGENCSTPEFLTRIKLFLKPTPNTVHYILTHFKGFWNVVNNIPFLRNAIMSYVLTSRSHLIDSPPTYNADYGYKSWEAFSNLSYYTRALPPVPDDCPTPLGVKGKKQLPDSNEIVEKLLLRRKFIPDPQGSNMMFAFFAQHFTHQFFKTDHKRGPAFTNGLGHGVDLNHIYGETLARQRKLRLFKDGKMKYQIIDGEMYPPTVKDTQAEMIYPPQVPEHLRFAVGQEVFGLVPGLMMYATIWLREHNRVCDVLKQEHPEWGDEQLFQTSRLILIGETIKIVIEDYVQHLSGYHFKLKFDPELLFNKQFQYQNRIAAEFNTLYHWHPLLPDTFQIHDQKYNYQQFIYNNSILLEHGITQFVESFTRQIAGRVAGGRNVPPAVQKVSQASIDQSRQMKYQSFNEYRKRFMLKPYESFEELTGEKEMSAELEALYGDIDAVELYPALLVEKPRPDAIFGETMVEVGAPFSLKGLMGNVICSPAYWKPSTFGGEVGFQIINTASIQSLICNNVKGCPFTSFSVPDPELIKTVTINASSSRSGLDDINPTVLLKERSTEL
# [5] = system: mouse mammary gland organ culture; settings: Gerhauser et al., 2002; cited from earlier work
# T1 sequence (P03372 whole entry): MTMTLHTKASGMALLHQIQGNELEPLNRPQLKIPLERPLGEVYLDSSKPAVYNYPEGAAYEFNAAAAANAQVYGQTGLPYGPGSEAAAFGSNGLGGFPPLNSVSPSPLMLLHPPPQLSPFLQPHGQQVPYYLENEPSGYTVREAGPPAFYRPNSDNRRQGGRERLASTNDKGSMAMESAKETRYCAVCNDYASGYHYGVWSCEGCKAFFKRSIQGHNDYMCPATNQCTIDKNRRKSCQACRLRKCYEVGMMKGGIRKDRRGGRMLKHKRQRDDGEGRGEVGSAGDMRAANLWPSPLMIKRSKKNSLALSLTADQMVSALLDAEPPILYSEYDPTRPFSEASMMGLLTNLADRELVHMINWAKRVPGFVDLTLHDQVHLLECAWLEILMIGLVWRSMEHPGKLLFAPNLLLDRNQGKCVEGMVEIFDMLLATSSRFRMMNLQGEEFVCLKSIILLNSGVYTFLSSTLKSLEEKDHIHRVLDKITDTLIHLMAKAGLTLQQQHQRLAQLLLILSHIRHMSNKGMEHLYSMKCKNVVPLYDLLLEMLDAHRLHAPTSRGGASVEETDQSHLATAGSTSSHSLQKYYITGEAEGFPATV
smiles,measurement,setting,value
"CC(C)=CCc1c(O)c(CC=C(C)C)c2c(c1O)C(=O)C[C@@H](c1ccc(O)cc1)O2 [6,8-diprenylnaringenin]",oestrogenic activity,[1],only weakly oestrogenic
CC(C)=CCc1c(O)cc2c(c1O)C(=O)C[C@@H](c1ccc(O)cc1)O2 [6-prenylnaringenin],oestrogenic activity,[1],only weakly oestrogenic
CC(C)=CCC/C(C)=C/Cc1c(O)cc(O)c2c1O[C@H](c1ccc(O)cc1)CC2=O [8-geranylnarin-genin],oestrogenic activity,[1],only weakly oestrogenic
CC(C)CCc1c(O)cc(O)c2c1O[C@H](c1ccc(O)cc1)CC2=O [8-isopentylnaringenin],stability compared to 8-prenylnaringenin (less easily metabolised),[2],better stability
same,"oestrogenic activity, times weaker than 8-prenylnaringenin",human oestrogen receptor,3-4 times
CC(C)=CCc1c(O)cc(O)c2c1O[C@H](c1ccc(O)cc1)CC2=O [8-prenylnaringenin],oestrogenic activity,[1],activity greater than that of other established phyto-oestrogens
same,oestrogenic activity in vivo,[3],high oestrogenic activity
same,proliferation of MCF-7 breast cancer cells,"[4]; increasing concentrations of 8-prenylnaringenin (1 nM, 10 nM, 100 nM), FIG. 2",increased proliferation
COc1cc(O)c(CC=C(C)C)c2c1C(=O)CC(c1ccc(O)cc1)O2 (stereo not shown) [isoxanthohumol],oestrogenic activity,[1],only weakly oestrogenic
COc1cc(O)c(CC=C(C)C)c(O)c1C(=O)/C=C/c1ccc(O)cc1 [xanthohumol],inhibition of cyclooxygenase-1 activity,cyclooxygenase-1,inhibition
same,inhibition of cyclooxygenase-2 activity,cyclooxygenase-2,inhibition
same,oestrogenic activity of xanthohumol,[1]; no source stated,oestrogenically inactive
same,xanthohumol to 8-prenylnaringenin weight ratio giving sufficient inhibition of proliferation,[4]; FIG. 2,at least 10
same,concentrations of xanthohumol that significantly inhibit the proliferation induced by 8-prenylnaringenin,"[4]; MCF-7 cells, 8-prenylnaringenin 1, 10, 100 nM",at least 5 μM
same,concentrations of xanthohumol that stimulated the proliferation induced by 8-prenylnaringenin,"[4]; MCF-7 cells, each concentration of 8-prenylnaringenin, ratio of xanthohumol to 8-prenylnaringenin below 10",< 1 µM
same,prevention of carcinogen-induced preneoplastic lesions,[5],efficient at nanomolar concentrations
